Measured values reported in ChEMBL document CHEMBL1147624, “Inhibitors of hepatitis C virus NS3.4A protease 2. Warhead SAR and optimization” (Bioorg Med Chem Lett, 2004).
Where a SMILES comes first, the peptide text is derived from it. [ ]: non-standard residue; d: D form. The star is where a group is joined. Pyrazinecarbonyl = O=C(c1cnccn1)*; Hyp = O=C(O)[C@@H]1C[C@@H](O)CN1; Abu = CC[C@H](N)C(=O)O; Bn = c1ccc(C*)cc1

What was measured:
NS3 = NS3 (Hepatitis C virus, UniProt A3EZJ3); test: Binding inhibition of hepatitis C virus NS3.4A protease 2 using p-nitroaniline assay (pNA); design: species or system Hepacivirus hominis
NS3, sequence (A3EZJ3 whole entry): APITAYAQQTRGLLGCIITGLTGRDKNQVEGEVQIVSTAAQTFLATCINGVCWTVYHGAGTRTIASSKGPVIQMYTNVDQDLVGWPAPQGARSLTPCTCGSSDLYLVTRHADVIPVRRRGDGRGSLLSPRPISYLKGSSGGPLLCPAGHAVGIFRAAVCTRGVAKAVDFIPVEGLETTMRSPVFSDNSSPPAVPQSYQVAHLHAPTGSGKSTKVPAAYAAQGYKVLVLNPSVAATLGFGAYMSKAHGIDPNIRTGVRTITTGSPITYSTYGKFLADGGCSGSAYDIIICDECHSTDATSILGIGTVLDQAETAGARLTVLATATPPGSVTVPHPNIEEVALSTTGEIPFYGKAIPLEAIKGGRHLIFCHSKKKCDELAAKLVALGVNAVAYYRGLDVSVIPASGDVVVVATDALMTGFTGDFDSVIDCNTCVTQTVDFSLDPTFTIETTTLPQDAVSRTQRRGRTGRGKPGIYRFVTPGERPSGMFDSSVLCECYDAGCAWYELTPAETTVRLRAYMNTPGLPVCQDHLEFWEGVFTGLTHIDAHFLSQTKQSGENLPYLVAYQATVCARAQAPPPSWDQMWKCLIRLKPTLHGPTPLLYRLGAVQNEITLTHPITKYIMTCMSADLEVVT

Huh-7 [1] = test: Cytotoxicity of compound was determined by MTS-based cell viability assay in Huh 7 cells; type: functional; conditions: Homo sapiens
Huh-7 [2] = test: Reduction of HCV RNA in 48 hr compound treated Huh 7 cells was determined by quantitative RT-PCR-based […] assay; type: functional; conditions: Homo sapiens, Huh-7, 48 h
[3] = target: T1, Hepatitis C virus serine protease, NS3/NS4A (Hepatitis C virus, UniProt D2K2A8+A3EZI9); test: Binding inhibition of hepatitis C virus NS3.4A protease 2 using p-nitroaniline assay (pNA); <0.2 (0.15); type: protein-complex assay, Hepacivirus hominis
T1 sequence (D2K2A8 whole entry): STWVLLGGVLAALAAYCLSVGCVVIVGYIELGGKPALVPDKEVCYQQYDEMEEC
T1 sequence (A3EZI9 whole entry): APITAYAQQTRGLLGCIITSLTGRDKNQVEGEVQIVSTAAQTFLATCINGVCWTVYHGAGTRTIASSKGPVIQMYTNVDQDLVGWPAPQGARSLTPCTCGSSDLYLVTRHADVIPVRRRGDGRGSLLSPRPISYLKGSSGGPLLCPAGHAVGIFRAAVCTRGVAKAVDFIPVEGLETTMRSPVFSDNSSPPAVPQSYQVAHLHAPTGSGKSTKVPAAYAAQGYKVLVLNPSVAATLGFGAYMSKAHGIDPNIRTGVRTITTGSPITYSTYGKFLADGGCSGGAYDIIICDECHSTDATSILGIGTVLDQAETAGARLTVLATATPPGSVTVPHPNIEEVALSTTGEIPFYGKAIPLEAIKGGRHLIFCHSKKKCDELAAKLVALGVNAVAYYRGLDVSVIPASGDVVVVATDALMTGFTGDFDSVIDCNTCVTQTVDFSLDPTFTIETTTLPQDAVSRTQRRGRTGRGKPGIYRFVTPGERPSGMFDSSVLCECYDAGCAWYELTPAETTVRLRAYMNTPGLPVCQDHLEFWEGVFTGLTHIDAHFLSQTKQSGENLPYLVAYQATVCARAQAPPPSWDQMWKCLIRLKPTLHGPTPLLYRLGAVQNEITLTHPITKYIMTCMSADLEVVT

[4] = target: T1, Hepatitis C virus serine protease, NS3/NS4A; test: Binding inhibition of hepatitis C virus NS3.4A protease 2 using a reverse phase HPLC based assay; <0.2 (0.15); type: protein-complex assay, Hepacivirus hominis
[5] = target: T1, Hepatitis C virus serine protease, NS3/NS4A; test: Binding inhibition of hepatitis C virus NS3.4A protease 2 using a reverse phase HPLC based assay; type: protein-complex assay, Hepacivirus hominis
[6] = target: T1, Hepatitis C virus serine protease, NS3/NS4A; test: Binding inhibition of hepatitis C virus NS3.4A protease 2 using p-nitroaniline assay (pNA); <0.2 (0.03); type: protein-complex assay, Hepacivirus hominis
[7] = target: T1, Hepatitis C virus serine protease, NS3/NS4A; test: Binding inhibition of hepatitis C virus NS3.4A protease 2 using p-nitroaniline assay (pNA); <0.2 (0.10); type: protein-complex assay, Hepacivirus hominis
[8] = target: T1, Hepatitis C virus serine protease, NS3/NS4A; test: Binding inhibition of hepatitis C virus NS3.4A protease 2 was determined; type: protein-complex assay, Hepacivirus hominis
[9] = target: T1, Hepatitis C virus serine protease, NS3/NS4A; test: Binding inhibition of hepatitis C virus NS3.4A protease 2 using p-nitroaniline assay (pNA); <0.2 (0.18); type: protein-complex assay, Hepacivirus hominis

| SMILES | Ki (NS3) | CC50 (Huh-7 [1]) | IC50 (Huh-7 [2]) | also measured |
| --- | --- | --- | --- | --- |
| CCCC(NC(=O)[C@@H]1C[C@@H](OC(=O)N2CCc3ccccc3C2)CN1C(=O)[C@H](NC(=O)[C@H](NC(=O)c1cnccn1)C(C)C)C(C)C)C(=O)C(=O)NCc1ccco1 (stereo partly drawn) | 4.72 µM | – | – | – |
| CC[C@H](NC(=O)[C@@H]1C[C@@H](OCc2ccccc2)CN1C(=O)[C@@H](NC(=O)[C@@H](NC(=O)c1cnccn1)C(C)C)C(C)C)C(=O)c1nnc(-c2ccccc2)o1 | 35 µM | – | – | – |
| CCCC(NC(=O)[C@@H]1C[C@@H](OC(=O)N2CCc3ccccc3C2)CN1C(=O)[C@H](NC(=O)[C@H](NC(=O)c1cnccn1)C(C)C)C(C)C)C(=O)C(=O)NC1CCC1 (stereo partly drawn) | 0.8 µM | > 100 µM | > 10.2 µM | – |
| CC[C@H](NC(=O)[C@@H]1C[C@@H](OCc2ccccc2)CN1C(=O)[C@@H](NC(=O)[C@@H](NC(=O)c1cnccn1)C(C)C)C(C)C)C(=O)O (Pyrazinecarbonyl-VV[Hyp](Bn)[Abu]-OH) | > 50 µM | – | – | – |
| CCCC(NC(=O)[C@@H]1C[C@@H](OC(=O)N2CCc3ccccc3C2)CN1C(=O)[C@H](NC(=O)[C@H](NC(=O)c1cnccn1)C(C)C)C(C)C)C(=O)C(=O)NC(C)C (stereo partly drawn) | 0.52 µM | > 100 µM | > 10 µM | – |
| CC[C@H](NC(=O)[C@@H]1C[C@@H](OCc2ccccc2)CN1C(=O)[C@@H](NC(=O)[C@@H](NC(=O)c1cnccn1)C(C)C)C(C)C)C(=O)C(=O)c1ccccc1 | 10 µM | – | – | – |
| CCCC(NC(=O)[C@@H]1C[C@@H](OC(=O)N2CCc3ccccc3C2)CN1C(=O)[C@H](NC(=O)[C@H](NC(=O)c1cnccn1)C(C)C)C(C)C)C(=O)C(=O)NCC(=O)O (stereo partly drawn) | – | > 100 µM | > 10 µM | Ki [3]: < 0.2 µM; IC50 [4]: 0.037 µM |
| CC[C@@H](C=O)NC(=O)[C@@H]1C[C@@H](OCc2ccccc2)CN1C(=O)[C@@H](NC(=O)[C@@H](NC(=O)c1cnccn1)C(C)C)C(C)C (Pyrazinecarbonyl-VV[Hyp](Bn)[Abu]-aldehyde) | 16 µM | – | – | – |
| CCCC(NC(=O)[C@@H]1C[C@@H](OC(=O)N2CCc3ccccc3C2)CN1C(=O)[C@H](NC(=O)[C@H](NC(=O)c1cnccn1)C(C)C)C(C)C)C(=O)C(=O)N(C)CC(=O)O (stereo partly drawn) | 5.23 µM | – | – | – |
| CCCC(NC(=O)[C@@H]1CC(OC(=O)N2CCc3ccccc3C2)CN1C(=O)[C@H](NC(=O)[C@H](NC(=O)c1cnccn1)C(C)C)C(C)C)C(=O)C(=O)c1ccccc1 (single isomer, unassigned) | – | > 100 µM | > 10 µM | IC50 [5]: 0.026 µM; Ki [6]: < 0.2 µM |
| CCCC(NC(=O)[C@@H]1C[C@@H](OC(=O)N2CCc3ccccc3C2)CN1C(=O)[C@H](NC(=O)[C@H](NC(=O)c1cnccn1)C(C)C)C(C)C)C(=O)C(=O)N[C@@H](C)c1ccccc1 (stereo partly drawn) | – | > 16 µM | > 0.31 µM | Ki [7]: < 0.2 µM; IC50 [5]: 0.22 µM |
| CCCC(NC(=O)[C@@H]1C[C@@H](OC(=O)N2CCc3ccccc3C2)CN1C(=O)[C@H](NC(=O)[C@H](NC(=O)c1cnccn1)C(C)C)C(C)C)C(=O)C(=O)NCc1nnn[nH]1 (stereo partly drawn) | 0.29 µM | > 100 µM | > 10 µM | – |
| CCCC(NC(=O)[C@@H]1C[C@@H](OC(=O)N2CCc3ccccc3C2)CN1C(=O)[C@H](NC(=O)[C@H](NC(=O)c1cnccn1)C(C)C)C(C)C)C(=O)C(=O)NCCc1ccccc1 (stereo partly drawn) | 0.21 µM | > 100 µM | > 10 µM | IC50 [5]: 0.52 µM |
| CC[C@@H](C=O)NC(=O)[C@@H]1CC(OC(=O)C2CCc3ccccc3C2)CN1C(=O)[C@@H](NC(=O)[C@@H](NC(=O)c1cnccn1)C(C)C)C(C)C (stereo partly drawn) | – | – | – | Ki [8]: 0.89 µM |
| CCC(NC(=O)[C@@H]1C[C@@H](OCc2ccccc2)CN1C(=O)[C@H](NC(=O)[C@H](NC(=O)c1cnccn1)C(C)C)C(C)C)C(=O)C(F)(F)F (stereo partly drawn) | > 50 µM | – | – | – |
| CCCC(NC(=O)[C@@H]1C[C@@H](OC(=O)N2CCc3ccccc3C2)CN1C(=O)[C@H](NC(=O)[C@H](NC(=O)c1cnccn1)C(C)C)C(C)C)C(=O)C(=O)NCc1ccccc1 (stereo partly drawn) | – | > 30 µM | > 3.2 µM | Ki [3]: < 0.2 µM; IC50 [5]: 0.22 µM |
| CCCC(NC(=O)[C@@H]1C[C@@H](OC(=O)N2CCc3ccccc3C2)CN1C(=O)[C@H](NC(=O)[C@H](NC(=O)c1cnccn1)C(C)C)C(C)C)C(=O)C(=O)NCC#N (stereo partly drawn) | 1.12 µM | – | – | – |
| CC[C@H](NC(=O)[C@@H]1C[C@@H](OCc2ccccc2)CN1C(=O)[C@@H](NC(=O)[C@@H](NC(=O)c1cnccn1)C(C)C)C(C)C)C(=O)C(=O)C(C)C | 2.7 µM | – | – | – |
| CCCC(NC(=O)[C@@H]1C[C@@H](OC(=O)N2CCc3ccccc3C2)CN1C(=O)[C@H](NC(=O)[C@H](NC(=O)c1cnccn1)C(C)C)C(C)C)C(=O)C(=O)NC1CC1 (stereo partly drawn) | – | > 100 µM | > 2.3 µM | Ki [3]: < 0.22 µM; IC50 [5]: 0.42 µM |

| SMILES | Ki (NS3) | CC50 (Huh-7 [1]) | IC50 (Huh-7 [2]) | also measured |
| --- | --- | --- | --- | --- |
| CCCC(NC(=O)[C@@H]1C[C@@H](OC(=O)N2CCc3ccccc3C2)CN1C(=O)[C@H](NC(=O)[C@H](NC(=O)c1cnccn1)C(C)C)C(C)C)C(=O)C(=O)NC(CO)C(=O)O (stereo partly drawn) | 0.54 µM | – | – | – |
| CC[C@H](NC(=O)[C@@H]1C[C@@H](OCc2ccccc2)CN1C(=O)[C@@H](NC(=O)[C@@H](NC(=O)c1cnccn1)C(C)C)C(C)C)C(=O)C(=O)N1CCCC1 | 32 µM | – | – | – |
| CCCC(NC(=O)[C@@H]1C[C@@H](OC(=O)N2CCc3ccccc3C2)CN1C(=O)[C@H](NC(=O)[C@H](NC(=O)c1cnccn1)C(C)C)C(C)C)C(=O)C(=O)NC(C)C(=O)O (stereo partly drawn) | – | – | – | Ki [9]: 0.2 µM; IC50 [5]: 0.13 µM |
| CCCC(NC(=O)[C@@H]1CC(OC(=O)N2CCc3ccccc3C2)CN1C(=O)[C@H](NC(=O)[C@H](NC(=O)c1cnccn1)C(C)C)C(C)C)C(=O)C(=O)N1CCC1 (single isomer, unassigned) | 0.97 µM | > 100 µM | > 10.3 µM | – |
| CC[C@H](NC(=O)[C@@H]1C[C@@H](OCc2ccccc2)CN1C(=O)[C@@H](NC(=O)[C@@H](NC(=O)c1cnccn1)C(C)C)C(C)C)C(=O)C(=O)N[C@@H](C)c1ccccc1 [listing 1 of 2 here] | 0.92 µM | – | > 4.8 µM | – |
| CC[C@H](NC(=O)[C@@H]1C[C@@H](OCc2ccccc2)CN1C(=O)[C@@H](NC(=O)[C@@H](NC(=O)c1cnccn1)C(C)C)C(C)C)C(=O)C(=O)N[C@@H](C)c1ccccc1 [listing 2 of 2 here] | – | > 100 µM | – | – |
| CCOC(=O)C(F)(F)C(=O)C(CC)NC(=O)C1CC(OCc2ccccc2)CN1C(=O)[C@H](NC(=O)[C@H](NC(=O)c1cnccn1)C(C)C)C(C)C (single isomer, unassigned) | > 50 µM | – | – | – |
| CCCC(NC(=O)[C@@H]1C[C@@H](OC(=O)N2CCc3ccccc3C2)CN1C(=O)[C@H](NC(=O)[C@H](NC(=O)c1cnccn1)C(C)C)C(C)C)C(=O)C(=O)NCC(=N)N (stereo partly drawn) | 5.76 µM | – | – | – |
| CCC(NC(=O)[C@@H]1C[C@@H](OCc2ccccc2)CN1C(=O)[C@H](NC(=O)[C@H](NC(=O)c1cnccn1)C(C)C)C(C)C)C(=O)C(F)(F)C(F)(F)F (stereo partly drawn) | 17.5 µM | – | – | – |
| CCCC(NC(=O)[C@@H]1C[C@@H](OC(=O)N2CCc3ccccc3C2)CN1C(=O)[C@H](NC(=O)[C@H](NC(=O)c1cnccn1)C(C)C)C(C)C)C(=O)C(=O)NC(C)(C)C (stereo partly drawn) | 6.9 µM | – | – | – |
| CC[C@H](NC(=O)[C@@H]1C[C@@H](OCc2ccccc2)CN1C(=O)[C@@H](NC(=O)[C@@H](NC(=O)c1cnccn1)C(C)C)C(C)C)C(=O)C(=O)N[C@H](C)c1ccccc1 | 17 µM | – | – | – |
| CCC(NC(=O)[C@@H]1C[C@@H](OCc2ccccc2)CN1C(=O)[C@H](NC(=O)[C@H](NC(=O)c1cnccn1)C(C)C)C(C)C)C(=O)CCl (stereo partly drawn) | > 50 µM | – | – | – |
| CCCC(NC(=O)[C@@H]1C[C@@H](OC(=O)N2CCc3ccccc3C2)CN1C(=O)[C@H](NC(=O)[C@H](NC(=O)c1cnccn1)C(C)C)C(C)C)C(=O)C(=O)N[C@@H](C)C(=O)c1cccc2ccccc12 (stereo partly drawn) | – | – | – | Ki [9]: < 0.2 µM; IC50 [5]: 0.75 µM |
| CC[C@H](NC(=O)[C@@H]1C[C@@H](OCc2ccccc2)CN1C(=O)[C@@H](NC(=O)[C@@H](NC(=O)c1cnccn1)C(C)C)C(C)C)C(=O)C(=O)NCc1ccccc1 | 4 µM | – | – | – |
| CCCC(NC(=O)[C@@H]1CC(OC(=O)N2CCc3ccccc3C2)CN1C(=O)[C@H](NC(=O)[C@H](NC(=O)c1cnccn1)C(C)C)C(C)C)C(=O)C(=O)Cc1ccccc1 (single isomer, unassigned) | 0.43 µM | > 100 µM | > 10 µM | – |
| CCCC(NC(=O)[C@@H]1C[C@@H](OC(=O)N2CCc3ccccc3C2)CN1C(=O)[C@H](NC(=O)[C@H](NC(=O)c1cnccn1)C(C)C)C(C)C)C(=O)C(=O)N(CC(=O)O)c1ccccc1 (stereo partly drawn) | 1.63 µM | – | – | – |
| CCCC(NC(=O)[C@@H]1CC(OC(=O)N2CCc3ccccc3C2)CN1C(=O)[C@H](NC(=O)[C@H](NC(=O)c1cnccn1)C(C)C)C(C)C)C(=O)C(=O)N1C[C@@H]1c1ccccc1 (single isomer, unassigned) | 1.6 µM | – | – | – |
| CC[C@H](NC(=O)[C@@H]1C[C@@H](OCc2ccccc2)CN1C(=O)[C@@H](NC(=O)[C@@H](NC(=O)c1cnccn1)C(C)C)C(C)C)C(=O)C(C)=O | 50 µM | – | – | – |
